{
  "source": "paper PMC11620482",
  "about": "“Phase 1 drug-drug interaction study to assess the effect of CYP3A4 inhibition and pan-CYP induction on the pharmacokinetics and safety of fosmanogepix in healthy participants” (Antimicrobial Agents and Chemotherapy, 2024)",
  "key": {"[1]": {"test": "Safety and tolerability (adverse events, laboratory findings), phase 1 DDI study", "protocol": "Participants were also excluded if they used any prescription medication (except female contraception) and any over-the-counter medications/supplements within 14 days and 7 days prior to the first admission, respectively.\nIn both cohorts, FMGX was administered as a 3-hour IV infusion twice a day (BID, dosing interval: […]). All participants received FMGX on 2 days, once before a washout period (minimum 14 days) and once after the washout. […] The study consisted of a screening phase [days −28 to −1 (admission)], assessment phase (cohort 1: days −1 to 31; cohort 2: days −1 to 34), and follow-up phase (cohort 1: day 38 ± 1; cohort 2: day 41 ± 1). Participants in both cohorts had in-clinic stays for two periods: cohort 1 [days −1 to 4 (morning) and days 17 to 31 (morning)], cohort 2 [days −1 to 4 (morning) and day 23 to 34 (morning)], and at home dosing for two periods: cohort 1 (days 15 to 17) and cohort 2 (days 15 to 23).\nSafety was assessed by evaluating the frequency of adverse events (AEs) recorded from the first admission (day −1) until completion of the follow-up visit (day 38 ± 1 in cohort 1; day 41 ± 1 in cohort 2). All AEs were classified per the Medical Dictionary for Regulatory Activities (MedDRA v22.1). The investigator ascertained relatedness to study the drug administration.\nAn analysis of variance (ANOVA) model was used to analyze the natural log-transformed primary PK parameters while the secondary PK parameters were not subjected to inferential statistical analysis. For each cohort, 18 participants were included to ensure at least 16 completed all assessments, as this was considered adequate to evaluate PK, safety, and tolerability. Thus, a sample size of 36 was considered sufficient to assess primary and secondary objectives. […] The PK analysis set included all participants who received at least one dose of FMGX and had adequate plasma concentration data available for PK analysis."}, "human CYPs": {"test_system": "human CYPs", "conditions": "concentrations up to 30 µM in vitro; ref data on file; cited from earlier work"}, "[2]": {"test_system": "Candida, Coccidioides, Cryptococcus, and Aspergillus spp", "conditions": "cited from earlier work"}, "CYP450 enzymes": {"test_system": "CYP450 enzymes", "conditions": "cited from earlier work"}, "[3]": {"test": "Plasma pharmacokinetics of MGX and FMGX (noncompartmental analysis), phase 1 fixed-sequence DDI study with itraconazole or rifampin", "format": "in vivo, human", "conditions": "for FMGX AUC(0-23) / FMGX AUC(0-t) / FMGX Cmax / FMGX Tmax / FMGX AUC(inf) / FMGX CL / FMGX Vz / FMGX t½ / FMGX λz: D1; for FMGX AUC(0-23) / FMGX AUC(0-t) / FMGX Cmax / FMGX AUC(inf) / FMGX CL / FMGX Vz / FMGX t½ / FMGX λz: geometric mean (geometric %CV); for FMGX Tmax: median (range)", "protocol": "In cohort 1, MGX plasma samples were collected at specified time points daily on days 1–4, once every 2 days on days 6–14, daily for 3 days from days 18 to 20, once every 2 days from days 21 to 29, and then on day 31, while itraconazole samples were collected at specified time points on days 19, 25, and 31. […] PK parameters were calculated using noncompartmental analysis from the plasma concentration-time data for MGX and FMGX. Primary PK parameters were maximum observed plasma concentration (Cmax), AUC from time 0 to infinity (AUC0-inf), and AUC up to time t (AUC0-t, where t was the last time point with concentrations above the lower limit of quantitation). […] Secondary PK parameters were time to attain Cmax (Tmax), AUC from time 0 to 23 hours (AUC0-23), terminal elimination half-life after the last dosing on the day (t1/2), clearance (CL), volume of distribution at terminal phase (Vz), and terminal phase rate constant after the last dosing on the day (λz)."}, "[4]": {"conditions": "FMGX only 500 mg BID IV, Cohort 1, n = 16"}, "[5]": {"conditions": "FMGX only 500 mg BID IV, Cohort 1, n=12"}, "[6]": {"conditions": "FMGX only 1000 mg BID IV, Cohort 2, n = 17"}, "[7]": {"conditions": "one participant, cohort 1, considered related to itraconazole, days 31 through 70"}},
  "note": "Marks after values point to notes of the source that are not given here.",
  "data": [
    {"smiles": "Nc1c(-c2cc(Cc3ccc(COc4ccccn4)cc3)no2)ccc[n+]1COP(=O)([O-])O", "note": "[FMGX, Fosmanogepix]", "values": [
      {"measurement": "FMGX-related AEs / all events", "setting": "[1]; Cohort 1, FMGX 500 mg", "result": "4/43"},
      {"measurement": "FMGX-related AEs / all events", "setting": "[1]; Cohort 2, FMGX 1,000 mg", "result": "33/145"},
      {"measurement": "Safety and tolerability", "setting": "[1]; FMGX 500 and 1,000 mg, alone or with itraconazole 200 mg or rifampin 600 mg", "result": "safe and well tolerated"},
      {"measurement": "Deaths, serious AEs (SAEs), FMGX-related withdrawals", "setting": "[1]; both cohorts, N = 36", "result": "No deaths, serious AEs (SAEs), or FMGX-related withdrawals"},
      {"measurement": "Participants reporting FMGX-related AEs, n (%)", "setting": "[1]; both cohorts, N = 36", "result": "12 (33.3%)"},
      {"measurement": "AEs considered related to FMGX, number of events", "setting": "[1]; of all 188 events, both cohorts", "result": 37},
      {"measurement": "Reversible or time-dependent inhibition of human CYPs", "setting": "human CYPs", "result": "No reversible or time-dependent inhibition"},
      {"measurement": "Efficacy in mouse models of invasive pulmonary and disseminated fungal infections", "setting": "[2]", "result": "demonstrated efficacy"},
      {"measurement": "Substrate for CYP450 enzymes", "setting": "CYP450 enzymes", "result": "not a substrate"},
      {"measurement": "FMGX AUC(0-23)", "setting": "[3]; [4]", "result": "9945 (16.5) hr×ng/mL"},
      {"measurement": "FMGX AUC(0-t)", "setting": "[3]; [4]", "result": "9945 (16.5) hr×ng/mL"},
      {"measurement": "FMGX Cmax", "setting": "[3]; [4]", "result": "1520 (18.6) ng/mL"},
      {"measurement": "FMGX Tmax", "setting": "[3]; [4]", "result": "10.5 (0.50 – 12.0) hr"},
      {"measurement": "FMGX AUC(inf)", "setting": "[3]; [5]", "result": "10191 (18.3)** hr×ng/mL"},
      {"measurement": "FMGX CL", "setting": "[3]; [5]", "result": "98128 (18.3)** mL/hr"},
      {"measurement": "FMGX Vz", "setting": "[3]; [5]", "result": "53.6 (22.5)** L"},
      {"measurement": "FMGX t½", "setting": "[3]; [5]", "result": "0.38 (14.4)** hr"},
      {"measurement": "FMGX λz", "setting": "[3]; [5]", "result": "1.83 (14.4)** 1/hr"},
      {"measurement": "FMGX AUC(0-23)", "setting": "[3]; [6]", "result": "18162 (22.3) hr×ng/mL"},
      {"measurement": "FMGX AUC(0-t)", "setting": "[3]; [6]", "result": "18162 (22.3) hr×ng/mL"},
      {"measurement": "FMGX AUC(inf)", "setting": "[3]; [6]", "result": "18163 (22.3) hr×ng/mL"},
      {"measurement": "FMGX CL", "setting": "[3]; [6]", "result": "110117 (22.3) mL/hr"},
      {"measurement": "FMGX Cmax", "setting": "[3]; [6]", "result": "2974 (24.2) ng/mL"},
      {"measurement": "FMGX Vz", "setting": "[3]; [6]", "result": "69.4 (30.4) L"},
      {"measurement": "FMGX t½", "setting": "[3]; [6]", "result": "0.44 (18.4) hr"},
      {"measurement": "FMGX λz", "setting": "[3]; [6]", "result": "1.59 (18.4) 1/hr"},
      {"measurement": "FMGX Tmax", "setting": "[3]; [6]", "result": "9.50 (0.50 – 12.1) hr"},
      {"measurement": "Effect of CYP3A4 inhibition or pan-CYP induction on exposure to FMGX", "setting": "[3]; both cohorts", "result": "did not affect exposure"}
    ]},
    {"smiles": "CCC(C)n1ncn(-c2ccc(N3CCN(c4ccc(OCC5COC(Cn6cncn6)(c6ccc(Cl)cc6Cl)O5)cc4)CC3)cc2)c1=O", "note": "(stereo not shown) [ITR, itraconazole, reference compound]", "values": [
      {"measurement": "Increase in alanine transaminase (ALT)", "setting": "[1]; [7]", "result": "~ 8 × ULN"},
      {"measurement": "Increase in aspartate transaminase (AST)", "setting": "[1]; [7]", "result": "~ 11 × ULN"},
      {"measurement": "Increase in lactate dehydrogenase (LDH)", "setting": "[1]; one participant, cohort 1, day 31 to day 63", "result": "~ 2 × ULN"}
    ]}
  ]
}
